The target in test [1] is T1, Beta-1,4-galactosyltransferase 1 (Homo sapiens, UniProt P15291).
T1 sequence (P15291 whole entry): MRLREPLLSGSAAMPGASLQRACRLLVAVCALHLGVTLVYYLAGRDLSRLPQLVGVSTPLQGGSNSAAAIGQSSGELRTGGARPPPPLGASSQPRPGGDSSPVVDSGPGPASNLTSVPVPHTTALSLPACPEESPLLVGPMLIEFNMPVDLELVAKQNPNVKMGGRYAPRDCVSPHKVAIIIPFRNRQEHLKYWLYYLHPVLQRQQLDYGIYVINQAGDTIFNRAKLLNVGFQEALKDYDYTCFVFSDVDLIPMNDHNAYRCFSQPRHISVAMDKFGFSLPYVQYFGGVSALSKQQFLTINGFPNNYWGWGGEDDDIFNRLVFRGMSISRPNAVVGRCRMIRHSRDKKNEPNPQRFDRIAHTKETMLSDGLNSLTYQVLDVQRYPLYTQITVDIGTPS
As to the kind of experiment: Inhibitory constant against human Beta-1,4-galactosyltransferase I; N.I. is inactive.

Test [2] has as its target T1, Beta-1,4-galactosyltransferase 1. As to the kind of experiment: Inhibitory constant against human recombinant Beta-1,4-galactosyltransferase I; N.I. is inactive.

Each structure is given as a SMILES string.

Drawing on ChEMBL document CHEMBL1141090, “Rational design, synthesis, and characterization of novel inhibitors for human beta1,4-galactosyltransferase” (J Med Chem, 2005), this text covers Ki for two compounds.

As to `O=c1ccn([C@@H]2O[C@H](COP(=O)(O)OP(=O)(O)O[C@H]3O[C@@H](CNCCCCCCOCc4ccc5ccccc5c4)[C@H](O)[C@H](O)[C@@H]3O)[C@@H](O)[C@H]2O)c(=O)[nH]1`, the Ki entry in test [1] is reported as “Not Active”.

Turning to `O=c1ccn([C@@H]2O[C@H](COP(=O)(O)OP(=O)(O)O[C@H]3O[C@@H](CNCc4cccc5ccccc45)[C@H](O)[C@H](O)[C@@H]3O)[C@@H](O)[C@H]2O)c(=O)[nH]1`, the Ki entry in test [2] is listed as “Not Active”.
